Values after ≈ are worked out from the molar mass of the structure shown. Values joined by “and” are separate entries in the source; they are usually repeats but may differ in a detail not shown here. Identical values can stand only once. Like-named read-outs stand apart in the source and are kept apart here.

The subject of series [1] is Pseudomonas aeruginosa (ATCC 27853). As to the kind of experiment: Broth microdilution MIC, P. aeruginosa reference strain. In kind it is cell-based. How it is done: (§1) The antimicrobial activity of the synthesized compounds was evaluated against four reference bacterial strains: Staphylococcus aureus (ATCC 29213), Enterococcus faecalis (ATCC 29212), Escherichia coli (ATCC 25922), and Pseudomonas aeruginosa (ATCC 27853), which are commonly used for determining antibacterial activity. In addition, two clinical strains, S. aureus (MRSA) and E. faecium (VRE), were included in the study. The bacterial strains were inoculated from Selectrol discs (Biomaxima SA, Lublin, Poland) onto blood agar (Graso Biotech, Starogard Gdański, Poland) and incubated at 37 °C for 24 h. Before testing, the strains were cultured aerobically on blood agar at 37 °C for 24 h.
The susceptibility of microorganisms to the synthesized compounds was determined using the broth microdilution assay, following the guidelines outlined by CLSI [30]. The final concentrations of the tested compounds in Mueller–Hinton broth, in 96-well plates (VWR International Sp. z o.o., Gdańsk, Poland), ranged from 0.125 to 256 mg/L. To prepare the bacterial suspension, bacteria from the overnight culture on blood agar were diluted in sterile 0.9% NaCl to achieve a turbidity equivalent to a 0.5 McFarland standard. […] The results are expressed as the MIC of the tested compounds, which was defined as the lowest concentration at which no visible growth of bacteria (no turbidity) was observed. […]

A further series has as its system E. coli ATCC 25922. Kind of series: microbe, parasite or virus in culture. In kind it is cell-based, Escherichia coli. Particulars: reference strain. The procedure: as §1
(§2) The susceptibility of microorganisms to the synthesized compounds was determined using the broth microdilution assay, following the guidelines outlined by CLSI [30]. The final concentrations of the tested compounds in Mueller–Hinton broth, in 96-well plates (VWR International Sp. z o.o., Gdańsk, Poland), ranged from 0.125 to 256 mg/L. To prepare the bacterial suspension, bacteria from the overnight culture on blood agar were diluted in sterile 0.9% NaCl to achieve a turbidity equivalent to a 0.5 McFarland standard. The adjusted inoculum suspension was further diluted in Mueller–Hinton broth so that after inoculation, each well contained approximately 5 × 10^5 CFU/mL. Aliquots (5 µL) of bacterial suspension were added to each solution. The sterility control (containing the broth) and the growth control (containing the reference strain in broth without the tested compound) were also set up. The antibiotics vancomycin and gentamicin were used as a control. The plates were incubated at 37 °C under aerobic conditions. The results are expressed as the MIC of the tested compounds, which was defined as the lowest concentration at which no visible growth of bacteria (no turbidity) was observed. The assay was performed in triplicate.

The test system of series [2] is E. faecium VRE (clinical isolate UCK 7979384). Kind of series: microbe, parasite or virus in culture. In kind it is cell-based. Conditions: read-out: MIC E. faecium VRE. The procedure:
as §1, §2

The subject of a further series is S. aureus ATCC 29213. Kind of series: microbe, parasite or virus in culture. In kind it is cell-based, Staphylococcus aureus. The procedure:
as §1, §2

Series [3] deals with S. aureus MRSA (clinical isolate no 203). As to the kind of experiment: microbe, parasite or virus in culture. Particulars: read-out: MIC S. aureus MRSA. In kind it is cell-based, Staphylococcus aureus. The procedure:
as §1, §2

For the next series, the system named is E. faecalis ATCC 29212. As to the kind of experiment: microbe, parasite or virus in culture. In kind it is cell-based, Enterococcus faecalis. The procedure:
as §1, §2

For series [4], the system named is normal human fibroblasts, BJ line (CRL-2522). As to the kind of experiment: Neutral red cytotoxicity assay. Conditions: 24 h. How it is done: Normal human fibroblasts, BJ line (CRL-2522™), Eagle’s Minimum Essential Medium (EMEM), and fetal bovine serum (FBS) were obtained from ATCC (Manassas, VA, USA). Cells were grown following ATCC guidelines in an EMEM medium supplemented with 10% FBS at 37 °C in a humidified atmosphere of 95% air and 5% CO2 in a HeraCell 150 incubator (Heraeus, Hanau, Germany).
The assay was performed as per previously published protocols with slight modifications. In brief, BJ cells were plated in 96-well tissue culture plates (Nest Scientific Biotechnology, Wuxi, China) at a density of 6 × 10^3 cells per well and allowed to attach for 24 h in EMEM supplemented with 10% FBS. After the incubation period, the medium was removed, and 10% dimethyl sulfoxide (DMSO)-treated cells (Sigma-Aldrich, St. Louis, MO, USA) were used as a positive control, while nontreated cells served as a negative control.
The cells were treated with peptides suspended in EMEM medium supplemented with 10% FBS and incubated for 24 h at 37 °C in a humidified atmosphere of 95% air and 5% CO2. After the incubation, the supernatants were discarded and replaced with 100 µL of non-supplemented EMEM containing 0.33% neutral red (Sigma-Aldrich) diluted 1:40. The cells were incubated for an additional 2 h at 37 °C. Following incubation, the neutral red medium was removed, and the cells were washed with 100 µL of phosphate-buffered saline (PBS) per well.
To extract the dye into the solution, the cells were treated with 150 µL of a solution containing 50% ethanol (Alchem, Torun, Poland), 49% distilled H2O, and 1% acetic acid (Alchem, Torun, Poland) and incubated under shaking at 37 °C for 10 min. Absorbance was measured at 540 nm using a Synergy H1 plate reader (BioTek Instruments, Winooski, VT, USA). The assay was performed in triplicate to ensure reproducibility.

Another series can be described thus: PAMPA-BBB assay. Conditions: 20 h incubation, mean ± SEM. An excerpt: This assay utilized a 96-well plate assembly consisting of a filter plate pre-coated with polar brain lipids (donor plate) and a receiver plate (acceptor plate). The phospholipid mixture used to coat the membrane was extracted from porcine polar brain lipids, with the following composition: 12.6% phosphatidylcholine, 33.1% phosphatidylethanolamine, 18.5% phosphatidylserine, 4.1% phosphatidylinositol, 0.8% phosphatidic acid, and 30.9% of other compounds, including cerebrosides, sulfatides, and pigments.
In each well of the donor filtration plate (Multiscreen Filter Plate, PVDF with a pore size of 0.45 µm), 5 µL of the phospholipid mixture in n-dodecane (20 mg/mL) was carefully applied to form the artificial membrane. After coating, 200 µL of phosphate-buffered saline (PBS at pH 7.4) containing 5% dimethyl sulfoxide (DMSO) as a co-solvent, and the test compound (at a concentration of 20 µM) was added to each well of the donor plate (in triplicate). […] The plate lid was then replaced and the resulting assembled donor–acceptor plates were incubated at room temperature for 20 h. After this time, the donor plate was removed and solutions from each well of both acceptor and donor plates were collected for further analysis. The concentrations of the tested compounds were determined by LC-MS. The analysis was conducted by UHPLC-MS system (Shimadzu Nexera X2 with LCMS-2020 detector) using a ReproSil Pure 120 ODS-3 column (Dr. Maisch GmbH, 100 × 2 mm, 2.4 µm particle size) with several gradients of ACN with 0.1% FA and 0.05% TFA at a flow rate of 0.3 mL/min. The eluted solution was monitored by an ESI-MS detector operated in a selected ion monitoring mode (SIM). […] CE=CD×VD+CA×VA/VD+VA

A further series deals with S. aureus (ATCC 29213). Kind of series: Checkerboard assay, interaction of Van with CPP components (FICI). Particulars: Van alone. In kind it is cell-based, Staphylococcus aureus.

Method for S. aureus (ATCC 29213): To determine possible interactions between Van and the CPP components of the conjugates, fractional inhibitory concentrations (FICs) were calculated for the tested compounds (Prop-Tat (47–57) and Prop-Arg9) using the following formula: FICA = MICA(with B)/MICA, FICB = MICB(with A)/MICB. To determine MICA(with B) and MICB(with A), a checkerboard assay was carried out in 96-well microtiter plates. Each test was performed in duplicate. The concentration range was 1.07 to 8 µg/mL for Van, 2.13 to 16 µg/mL for Prop-Tat (47–58), and 8.54 to 64 µg/mL for Prop-Arg9. Aliquots of 5 μL of bacterial suspension (at a concentration of 10^7 CFU/mL) were added to each well of the 96-well plate containing 100 μL of test compounds in Mueller–Hinton broth. The bacterial strain used was S. aureus (ATCC 29213). The plates were then incubated at 37 °C for 24 h. […] FIC values for Van, Prop-Tat (47–57) and Prop-Arg9 were calculated as follows: FICVan = MICVan+Prop-Tat (47–57) or FICVan = MICVan+Prop-Arg9 divided by MIC of Van alone, FICProp-Tat (47–57) = MICProp-Tat (47–57)+Van divided by MIC of Prop-Tat (47–57) alone, and FICProp-Arg9 = MICProp-Arg9+Van divided by MIC of Prop-Arg9 alone. The FIC indexes (FICIs) were calculated for the tested compounds as the sum of FICA and FICB.

Turning to `CNC(C)C1CCC(N)C(OC2C(N)CC(N)C(OC3OCC(C)(O)C(NC)C3O)C2O)O1` (stereo not shown) [Gentamicin], the MIC in [1] (Pseudomonas aeruginosa, ATCC27853, reference strain) was 4.08 µM (≈ 1.95 µg/mL); in the series on E. coli ATCC 25922 (Escherichia coli, ATCC25922), 1.95 µg/mL and 4.08 µM; in [2] (Enterococcus faecium, VRE, vancomycin-resistant clinical isolate UCK 7979384), 7.8 µg/mL and 16.3 µM; with S. aureus ATCC 29213 (Staphylococcus aureus, ATCC29213, reference strain, read-out: MIC S. aureus ATCC 29213), 0.24 µg/mL and 0.5 µM; in series [3] (Staphylococcus aureus, methicillin-resistant clinical isolate no 203), 0.48 µg/mL and 1 µM; in the series on E. faecalis ATCC 29212 (Enterococcus faecalis, ATCC29212, reference strain, read-out: MIC E. faecalis ATCC 29212), 7.8 µg/mL and 16.3 µM.
Turning to `CN[C@H](CC(C)C)C(=O)N[C@H]1C(=O)N[C@@H](CC(N)=O)C(=O)N[C@H]2C(=O)N[C@H]3C(=O)N[C@H](C(=O)N[C@H](C(=O)O)c4cc(O)cc(O)c4-c4cc3ccc4O)[C@H](O)c3ccc(c(Cl)c3)Oc3cc2cc(c3O[C@@H]2O[C@H](CO)[C@@H](O)[C@H](O)[C@H]2O[C@H]2C[C@](C)(N)[C@H](O)[C@H](C)O2)Oc2ccc(cc2Cl)[C@H]1O` [Vancomycin], in series [4], the “concentration above which cytotoxicity was shown” value is “above 16 µg/mL”. Besides, the “effect on cell viability” value in series [4] (at concentrations up to 4 µg/mL) is listed as “did not substantially affect cell viability”. Moreover, in the series “PAMPA-BBB assay”, the “R, mass retention” value came out at 11.3 ± 3.4%. The “inhibitory activity against P. aeruginosa” value in [1] (at the concentrations tested) is recorded as “resistant”. Moreover, the MIC in series [2] (Enterococcus faecium, VRE) is > 256 µg/mL and > 172 µM; in the series on S. aureus ATCC 29213 (Staphylococcus aureus, ATCC29213, read-out: MIC S. aureus ATCC 29213) it was 2 µg/mL and 1.35 µM; in series [3] (Staphylococcus aureus) it was 1.5 µg/mL and 1.01 µM; with E. faecalis ATCC 29212 (Enterococcus faecalis, ATCC29212, read-out: MIC E. faecalis ATCC 29212), 8 µg/mL and 5.38 µM. The MICA with S. aureus (ATCC 29213) is reported as 2 µg/mL.
For the compound `C#CC(=O)N[C@@H](Cc1ccc(O)cc1)C(=O)NCC(=O)N[C@@H](CCCNC(=N)N)C(=O)N[C@@H](CCCCN)C(=O)N[C@@H](CCCCN)C(=O)N[C@@H](CCCNC(=N)N)C(=O)N[C@@H](CCCNC(=N)N)C(=O)N[C@@H](CCC(N)=O)C(=O)N[C@@H](CCCNC(=N)N)C(=O)N[C@@H](CCCNC(=N)N)C(=O)N[C@@H](CCCNC(=N)N)C(N)=O` [compound 4], in series [4] (across the tested concentration range), the “effect on cell viability” value is recorded as “did not significantly affect cell viability”. In addition, the “R, mass retention” value in “PAMPA-BBB assay” came out at 3.3 ± 0.7%. The MIC against E. coli ATCC 25922 is reported as 79.5 µM (≈ 128 µg/mL); in [2] (vancomycin-resistant clinical isolate UCK 7979384) it was 19.9 µM (≈ 32.1 µg/mL); in the series on S. aureus ATCC 29213 (reference strain, read-out: MIC S. aureus ATCC 29213) it was 4.97 µM (≈ 8.01 µg/mL); in series [3] (methicillin-resistant clinical isolate no 203), 19.9 µM (≈ 32.1 µg/mL); in the series with E. faecalis ATCC 29212 (reference strain, read-out: MIC E. faecalis ATCC 29212) it was 159 µM (≈ 256 µg/mL).
